Assays:
[1] = target: dopamine D2-receptors (Rattus norvegicus, UniProt P61169); experiment: affinity for dopamine D2-receptors by displacement experiments with [3H]-spiperone (rat striatum membranes); format: binding
Method: 1Determining the affinity for dopamine D2-receptors by displacement experiments with [^3 H]-spiperone (Modified Method of W. Billard et al., Life Sci. 35, 1885 (1984) and D. J. de Vries and P. M. Beart, Eur. J. Pharmacol. 109, 417 (1985))
Male rats (of the Chbb:Thom strain weighing about 200 g) were killed by a blow to the back of the neck. The brains were removed and dissected on ice. The striata were dissected out, weighed and homogenised in 25 volumes of tris buffer (50 mM tris-HCl, 1 mM EDTA, 5 mM MgCl2 and 1 mM ascorbic acid) for 30 seconds in an Ultra-Turrax at maximum speed, followed by 10 cycles in a Potter-Elvehjem at 1400 rpm. The pellet obtained after centrifuging at 50,000×g at 4° C. for 15 minutes was again taken up in 25 ml of tris buffer and centrifuged under the above conditions. The supernatant was discarded and the pellet obtained was incubated in 25 ml of tris buffer at 37° C. for 30 minutes and then centrifuged again at 50,000×g at 4° C. for 15 minutes. Finally, the pellet obtained was mixed with tris buffer to obtain a homogenate dilution of 1:500 (based on the weight of the striata).
1 ml aliquots of the membrane preparation were incubated with 1 ml of a solution of 0.25 nM [^3 H]-spiperone ([…], Messrs. DuPont NEN) and at increasing concentrations of the test substance (10^-11 to 10^-4 M) at ambient temperature for one hour. Incubation was ended by the addition of 5 ml of ice cold tris buffer and filtration using Whatman GF/B filters. The filters were washed twice, each time with 5 ml of ice cold buffer. The radioactivity of the filters was determined by liquid scintillation measurement in Instagel^(R) (Messrs. Canberra Packard). Non-specific binding was determined in the presence of 10^-5 M haloperidol (Sigma Chemical Co.).
Displacement curves were obtained from the data using the TOPFIT programming package (G. Heinzel in "Pharmacokinetics During Drug Development: Data Analysis and Evaluation Techniques", G. Bozler and J. M. van Rossum Eds., G. Fischer Verlag, Stuttgart 1982, 207).

[2] = target: T1, alpha-2 receptors (Rattus norvegicus, UniProt P22909); experiment: affinity for alpha-2 receptors by displacement experiments with [3H]-clonidine (rat cortex membranes); format: binding; settings: read-out: α2-IC50
T1 sequence (P22909 1-465): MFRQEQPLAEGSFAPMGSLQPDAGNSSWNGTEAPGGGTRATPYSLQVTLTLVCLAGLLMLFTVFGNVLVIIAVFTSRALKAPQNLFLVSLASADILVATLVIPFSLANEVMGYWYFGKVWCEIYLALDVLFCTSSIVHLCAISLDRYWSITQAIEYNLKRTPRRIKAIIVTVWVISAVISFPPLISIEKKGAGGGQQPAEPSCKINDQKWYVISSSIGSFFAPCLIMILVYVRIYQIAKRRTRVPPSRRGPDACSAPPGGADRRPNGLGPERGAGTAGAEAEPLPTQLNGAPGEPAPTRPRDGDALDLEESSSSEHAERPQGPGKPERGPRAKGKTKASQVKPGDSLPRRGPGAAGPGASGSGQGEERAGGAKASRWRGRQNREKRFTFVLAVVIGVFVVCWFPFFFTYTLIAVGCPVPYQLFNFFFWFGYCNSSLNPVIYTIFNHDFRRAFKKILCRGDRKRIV
Method: Determination of the affinity for alpha-2 receptors by displacement experiments with [^3 H] clonidine (Modified Method of B. Jarrott, W. J. Louis and R. J. Summers, Biochem. Pharmacol. 27, 141 (1979))
A male rat (Chbb:Thom strain weighing about 200 g) was killed by a blow to the back of the neck. The brain was removed and the cortex dissected out, weighed and homogenised in 25 volumes of tris buffer (50 mM tris- HCl, pH 7.50) for 30 seconds in an Ultra-Turrax at maximum speed, followed by 10° Cycles in a Potter- Elvehjem at 1400 rpm. The homogenised material was combined with tris buffer to obtain a homogenate dilution of 1:50 (based on the weight of the cortex).
1 ml aliquots of the membrane preparation were incubated for three hours at ambient temperature with 1 ml of a solution of 1 nM of [^3 H]-clonidine (2.2 TBq/mmol, Messrs. DuPont NEN) and with increasing concentrations of the test substance (10^-11 to 10^-4 M). Incubation was ended by the addition of 5 ml of ice-cold tris buffer and filtration through Whatman GF/B filters. The filters were washed twice, each time with 5 ml of ice cold buffer. The radioactivity of the filters was determined by liquid scintillation measurement in Instagel(R) (Messrs. Canberra Packard). The non-specific binding was determined in the presence of 10^-5 M of oxymetazoline (Sigma Chemical Co.).

[3] = tested on: MPTP monkeys; experiment: post-synaptic dopaminergic activity in MPTP monkeys; format: in vivo, rhesus monkey
Text: 6. Determining the post-synaptic dopaminergic activity in MPTP monkeys (Modified Method of R. S. Burns et al., Proc. Natl. Acad. Sci. 80. 4546 (1983))
The neurotoxin 1-methyl-4-phenyl-1,2,3,6- tetrahydro-pyridine (MPTP) produces in humans and monkeys an irreversible syndrome which in its clinical, pathological, biochemical and pharmacological appearance is very similar to idiopathic Parkinson's disease (Markey et al., Nature 311, 464 (1984)). The reason for this similarity is that MPTP selectively destroys those dopaminergic nerve cells in the substantia nigra of the brain which are also lost by degenerative processes in Parkinson's disease. There is even some discussion that MPTP or an MPTP-like substance might be formed in the body and trigger Parkinson's disease (S. H. Snyder, Nature 311, 514 (1984)). Possibly because of the specific MPTP metabolism, the clinical formation of the MPTP-induced Parkinson syndrome has hitherto been detected only in humans and monkeys. The MPTP model produced in the rhesus monkey is therefore exceptionally suitable for testing the activity of post-synaptically acting dopamine agonists. For this purpose, rhesus monkeys were given MPTP in overall doses of up to about 6 mg/kg of body weight, until the following symptoms appeared: The animals were akinetic and unable to take water and food.
It is clear that with the compounds according to the invention there is no sedative effect or ataxia at a dosage which is several times the MED, which can be put down to the absence of a corresponding activity mediated by the α2- receptors.

[4] = tested on: hypersensitive dopamine receptor; experiment: motility triggering in the mouse treated 24 hours earlier with reserpine; format: in vivo; settings: Mus musculus, sc; reserpine-treated mice, s.c.; read-out: DLi50 (dosage resulting in 50 running pulses every 5 minutes)
Method: This test determines predominantly agonistic effects on the hypersensitive dopamine receptor.
Male mice are treated 24 hours before the experiment with 5 mg/kg i.p. reserpine. The animals are kept at 25°-30° C. and treated three times with 2 ml of a 5% glucose solution in tyrode s.c. (the first time when the reserpine is given, the second time in the evening of the pre-treatment day and the third time on the morning of the test day).
[…] (The injection volume is usually 0.1 ml/10 g of body weight). 30 minutes later the groups of animals are placed in the observation cages (measuring 42 x 24 x 8 cm) and fitted with an infrared lightbeam in order to measure their activity. The value measured is the frequency with which a group of 6 mice pass through the infra-red beam within 5 minutes ("running pulses/5 minutes"; mean at n=3; mean±s.e.m. at n=6).
3 to 6 groups are tested for each substance.

dopamine D2-receptors, sequence (P61169 whole entry): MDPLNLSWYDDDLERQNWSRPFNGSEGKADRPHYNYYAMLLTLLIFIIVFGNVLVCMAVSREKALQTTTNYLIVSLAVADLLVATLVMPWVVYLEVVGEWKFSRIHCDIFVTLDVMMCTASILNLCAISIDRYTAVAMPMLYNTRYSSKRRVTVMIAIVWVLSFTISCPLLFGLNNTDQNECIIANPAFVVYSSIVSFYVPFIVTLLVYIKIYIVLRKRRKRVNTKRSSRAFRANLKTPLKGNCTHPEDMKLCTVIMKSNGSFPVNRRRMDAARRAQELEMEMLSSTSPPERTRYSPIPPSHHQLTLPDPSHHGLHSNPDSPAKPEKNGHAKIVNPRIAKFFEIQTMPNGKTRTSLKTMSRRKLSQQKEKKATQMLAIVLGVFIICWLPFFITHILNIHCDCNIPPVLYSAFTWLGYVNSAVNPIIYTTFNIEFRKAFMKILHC

| SMILES | Ki ([1]; [3H]-spiperone, high-affinity form of the dopamine receptor) [nM] | α2-IC50 / D2-Ki ([1]; relative affinity for dopamine-D2 receptors compared with α2-adrenoceptors, the higher, the higher the D2/α2 selectivity) | IC50 [2] [nM] | Duration of activity ([3]; 0.05 mg/kg i.m. (MED)) [h] | Side effects ([3]; 0.05 mg/kg i.m. (MED)) | Duration of activity ([3]; 3.00 mg/kg i.m.) [h] | minimal effective dose ([3]; Primates, in Macaca mulatta, im, rhesus monkeys, i.m., read-out: minimum dose (MED) required to alleviate the Parkinson's symptoms) [mg/kg] | ED (50 running pulses/5 min) [4] [mg/kg] |
| --- | --- | --- | --- | --- | --- | --- | --- | --- |
| Nc1nc2c(s1)CCN(CC=Cc1ccccn1)CC2 [Example 11a, 2-Amino-6-(3-(2-pyridyl)allyl)-4,5,7,8-tetrahydro-6H-thiazolo[5,4-d]azepin] | 4.3 | 176 | 760 | 1.5 to 2 | none | 5 | 0.05 | 0.35 |
| Nc1nc2c(s1)CCN(CC=Cc1ccsc1)CC2 [Example 4a, 2-Amino-6-(3-(3-thienyl)allyl)-4,5,7,8-tetrahydro-6H-thiazolo[5,4-d]azepin] |  |  |  |  |  |  |  | 1.85 |

— patent US5068325A, “4,5,7,8-tetrahydro-6H-thiazolo[5,4-d]azepines, their preparation and their use as pharmaceutical compositions” (priority 1988, dated 1991)
